Reference: US6884821B1, “Carboxylic acid derivatives and drugs containing the same” (Eisai Co., Ltd., priority 1999, dated 2005)
Like-named read-outs stand apart in the source and are kept apart here.

Legend:
male db/db mice = experiment: Measurement of blood sugar reduction, blood triglyceride reduction and blood free fatty acid reduction in db/db mice; details: in vivo db/db mice, day 9 after administration, oral once a day
Method: Measurement of Blood Sugar Reduction, Blood Triglyceride Reduction and Blood Free Fatty Acid Reduction
Blood, was collected through a tail vein after the mice were fasted for 1 hour, before administration, and on Day 4 and Day 9 after administration, respectively. On Day 10, an oral glucose loading test was conducted; in this test, the mice were fasted overnight from the previous day, and in the next morning, 2 g/kg glucose was given to the mice. Plasma glucose, triglycerides (TG), free fatty acid (NEFA) were measured by using commercial kits, that is, Glucose C-II Test Wako (trade name) (Wako Pure Chemical Industries, Ltd., Tokyo), Deteminer L TG II (trade name) (Kyowa Medex, Tokyo) and NEFA C-Test Wako (Wako Pure Chemical Industries, Ltd., Tokyo), respectively.

human PPARα = target: T1, human PPARα (Homo sapiens, UniProt Q07869); experiment: Measurement of transcriptional activity (GAL4-PPAR LBD chimera, PLAP reporter, CV-1 cells); assay type: cell-based
T1 construct: human PPAR 167-468 (PPARα), 138-440 (NUC-1) and 174-475 (PPARY) amino acid regions; expressed in transfected cells; host or cells: CV-1 (ATCC CCL-70D)
T1 sequence (Q07869 167-468): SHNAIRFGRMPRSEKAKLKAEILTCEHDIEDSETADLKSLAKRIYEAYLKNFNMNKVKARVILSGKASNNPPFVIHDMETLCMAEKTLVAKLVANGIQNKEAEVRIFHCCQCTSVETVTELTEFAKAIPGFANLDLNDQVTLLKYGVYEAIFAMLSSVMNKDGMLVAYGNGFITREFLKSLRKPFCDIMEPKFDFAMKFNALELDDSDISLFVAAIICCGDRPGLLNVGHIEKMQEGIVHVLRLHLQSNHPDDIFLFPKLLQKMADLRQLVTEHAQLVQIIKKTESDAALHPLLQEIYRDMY
Method: (§1) Measurement of Transcriptional Activity
(§2) As the reporter gene, PLAP (Placental Alkaline Phosphatase) was used, and this was ligated downstream of a TK promoter containing a 5-copy GAL4 DNA binding element to construct a vector. As host cells, CV-1 (ATCC CCL-70D) was used. That is, CV-1 cells were spread at a density of 5×10^5 cells on a 35-mm dish and cultured in 10% FCS/DMEM for 24 hours, and using FuGENE 6 transfection reagent, the cells were co-transfected with the GAL4-PPAR LBD expression vector and GAL4 DBD-TK-PLAP expression vector. 24 hours after this transfection, the cells were spread again on a 96-well plate at a density of 1×10^4/well and further cultured for 24 hours. After 24 hours, the medium was exchanged with DMEM containing 10% FCS, which was previously treated at 65° C. for inactivating intrinsic alkaline phosphatase, and a test compound was added at an arbitrary concentration. […] The […] was determined after adding 50 μl assay buffer and 50 μl chemoluminescence substrate to 10 μl culture supernatant and incubating the mixture at room temperature for 1 hour.

human PPARβ (NUC-1) = target: T2, human PPARβ (NUC-1) (Homo sapiens, UniProt Q03181); experiment: as above; assay type: cell-based
T2 construct: human PPAR 167-468 (PPARα), 138-440 (NUC-1) and 174-475 (PPARY) amino acid regions; expressed in transfected cells; host or cells: CV-1 (ATCC CCL-70D)
T2 sequence (Q03181 138-440): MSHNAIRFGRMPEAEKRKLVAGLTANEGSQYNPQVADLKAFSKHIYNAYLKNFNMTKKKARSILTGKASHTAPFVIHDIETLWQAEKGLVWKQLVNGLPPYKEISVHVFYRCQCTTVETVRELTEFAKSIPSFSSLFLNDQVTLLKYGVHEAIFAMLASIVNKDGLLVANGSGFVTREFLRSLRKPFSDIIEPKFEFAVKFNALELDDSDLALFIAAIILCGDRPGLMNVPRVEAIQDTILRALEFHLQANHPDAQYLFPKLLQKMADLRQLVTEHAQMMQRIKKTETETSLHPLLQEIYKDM
Method: as §1, §2

human PPARγ = target: T3, human PPARγ (Homo sapiens, UniProt P37231); experiment: as above; assay type: cell-based; details: PLAP activity 24 hours after addition of the compound, read-out: Transcriptional activities EC50 PRAR γ
T3 construct: human PPAR 167-468 (PPARα), 138-440 (NUC-1) and 174-475 (PPARY) amino acid regions; expressed in transfected cells; host or cells: CV-1 (ATCC CCL-70D)
T3 sequence (P37231 204-505): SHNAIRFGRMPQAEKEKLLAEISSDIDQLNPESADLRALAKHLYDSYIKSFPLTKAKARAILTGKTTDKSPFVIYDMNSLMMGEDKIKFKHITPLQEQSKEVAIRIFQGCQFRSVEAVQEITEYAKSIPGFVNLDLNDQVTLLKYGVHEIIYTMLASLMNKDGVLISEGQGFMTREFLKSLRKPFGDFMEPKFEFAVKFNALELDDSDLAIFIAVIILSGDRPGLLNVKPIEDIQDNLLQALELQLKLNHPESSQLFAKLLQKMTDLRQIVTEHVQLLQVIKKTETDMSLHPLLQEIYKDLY
Method: as §1, §2

[1] = CV-1 cells, GAL4-PPAR LBD chimera, PLAP activity 24 hours after addition of the compound, read-out: Transcriptional activities EC50 PRAR α
[2] = CV-1 cells, GAL4-PPAR LBD chimera, PLAP activity 24 hours after addition of the compound, read-out: Transcriptional activities EC50 PRAR β

Structure (SMILES) | EC50 (human PPARα; [1]) [nM] | EC50 (human PPARγ) [nM] | EC50 (human PPARβ (NUC-1); [2]) [nM] | Blood free fatty acid reduction (%) (male db/db mice; 30 mg/kg/day) | Blood sugar reduction (%) (male db/db mice; 30 mg/kg/day) | Blood triglycerides reduction (%) (male db/db mice; 30 mg/kg/day) | EC50 (human PPARα) [nM] | EC50 (human PPARβ (NUC-1)) [nM] | Blood free fatty acid reduction (%) (male db/db mice; 1 mg/kg/day (*)) | Blood sugar reduction (%) (male db/db mice; 1 mg/kg/day (*)) | Blood triglycerides reduction (%) (male db/db mice; 1 mg/kg/day (*))
CCC(Cc1ccc(OC)c(C(=O)NCc2ccc(C(F)(F)F)cc2)c1)C(=O)O (centres unmarked) [Example 5d), 2-[4-Methoxy-3-({[4-(trifluoromethyl)benzyl]amino}carbonyl)benzyl)butanoic acid] | – | – | – | 65.5 | 53.6 | 58.8 | 394 | 789 | – | – | –
COc1ccc(CC(OC(C)C)C(=O)O)cc1C(=O)NCc1ccc(C(F)(F)F)cc1 (centres unmarked) [Example 2d), 2-Isopropoxy-3-(4-methoxy-3-({[4-(trifluoromethyl)benzyl]amino}carbonyl)phenyl)propanoic acid] | 80 | 382 | 2510 | 46.7 | 44.6 | 71.6 | – | – | – | – | –
COc1ccc(CC(OC(C)(C)C)C(=O)O)cc1C(=O)NCc1ccc(C(F)(F)F)cc1 (centres unmarked) [Example 3d), 2-tert-Butoxy-3-(4-methoxy-3-({[4-(trifluoromethyl)benzyl]amino}carbonyl)phenyl)propanoic acid] | 87 | 217 | 5070 | 47 | 27.5 | 63.8 | – | – | – | – | –
CCCOC(Cc1ccc(OC)c(C(=O)NCc2ccc(C(F)(F)F)cc2)c1)C(=O)O (centres unmarked) [Example 9d), 3-[4-methoxy-3-({[4-(trifluoromethyl)benzyl]amino}carbonyl)phenyl]-2-propoxypropanoic acid] | 701 | 746 | > 30000 | 62.9 | 46.1 | 80.4 | – | – | – | – | –

Now from value to molecule, other results behind:

EC50 (human PPARα; [1]) [nM] | EC50 (human PPARγ) [nM] | EC50 (human PPARβ (NUC-1); [2]) [nM] | Structure (SMILES) | Blood free fatty acid reduction (%) (male db/db mice; 30 mg/kg/day) | Blood sugar reduction (%) (male db/db mice; 30 mg/kg/day) | Blood triglycerides reduction (%) (male db/db mice; 30 mg/kg/day) | EC50 (human PPARα) [nM] | EC50 (human PPARβ (NUC-1)) [nM] | Blood free fatty acid reduction (%) (male db/db mice; 1 mg/kg/day (*)) | Blood sugar reduction (%) (male db/db mice; 1 mg/kg/day (*)) | Blood triglycerides reduction (%) (male db/db mice; 1 mg/kg/day (*))
12 | 47 | 37 | COc1ccc(C[C@H](OC(C)C)C(=O)O)cc1CNC(=O)c1ccc(C(F)(F)F)cc1F [Example 36g), (2S)-3-[3-([2-fluoro-4-(trifluoromethyl)benzoyl]aminomethyl)-4-methoxyphenyl]-2-isopropoxypropanoic acid] | – | – | – | – | – | 54.0 | 51.5 | 55.2
28 | 16 | 432 | COc1ccc(C[C@H](OC(C)C)C(=O)O)cc1CNC(=O)c1ccc(Cl)cc1Cl [Example 37e), (2S)-3-[3-([2,4-dichlorobenzoyl]aminomethyl)-4-methoxyphenyl]-2-isopropoxypropanoic acid] | – | – | – | – | – | 70.2 | 48.1 | 68.3
162 | > 10000 | 8050 | CCC(Cc1ccc(OC)c(NC(=O)Cc2ccc(C(F)(F)F)c(F)c2)c1)C(=O)O (centres unmarked) [Example 18d), 2-(4-Methoxy-3-{[2-(3-fluoro-4-trifluoromethylphenyl)acetyl]amino}benzyl)butanoic acid] | – | – | – | – | – | – | – | –
